Article PMC3548977 (Cancer cell, 2013)

Tests used:
[1] = target: murine SMO^E522K (Mus musculus, UniProt P56726, E522K); experiment: 8×-GLI-luciferase reporter in SHHN stimulated Smo−/− MEFs expressing SMO^E522K; details: GDC-0449 0.5 μM, itraconazole 1.5 μM
[2] = test system: Gli1 mRNA; experiment: Gli1 mRNA transcription in MB tumorspheres; type: cell-based; details: Mus musculus, 24 h, read-out: IC50 for Gli1 mRNA transcription
[3] = test system: Ptch^+/−; p53^−/− mouse MB allograft (SMO^WT); type: in vivo; details: day 9 of treatment; ATO 7.5 mg/kg IP qd, itraconazole 75 mg/kg PO bid
[4] = test system: Gli1 mRNA; experiment: Gli1 mRNA expression in treated SMO^WT MB allografts; type: in vivo, mouse; details: treated 3 days, harvested 4 h after last dose
[5] = test system: NVP-LDE225 resistant SMO mutants; type: cell-based, mouse; details: itraconazole 1.5 μM, mutant of Figure 7D
[6] = target: SMO^WT (Mus musculus, UniProt P56726); experiment: 8×-GLI-luciferase reporter in SHHN stimulated Smo−/− MEFs expressing SMO^WT; type: cell-based
[7] = test system: Ptch^+/−; p53^−/− MB tumorspheres expressing endogenous SMO^WT; experiment: MB tumorsphere proliferation; type: cell-based; details: Mus musculus, 96 h, read-out: IC50 anti-proliferative activity
[8] = test system: P-glycoprotein (PGP); details: ref Wang et al., 2002; cited from earlier work

Chain of SMO^WT (P56726 33-793): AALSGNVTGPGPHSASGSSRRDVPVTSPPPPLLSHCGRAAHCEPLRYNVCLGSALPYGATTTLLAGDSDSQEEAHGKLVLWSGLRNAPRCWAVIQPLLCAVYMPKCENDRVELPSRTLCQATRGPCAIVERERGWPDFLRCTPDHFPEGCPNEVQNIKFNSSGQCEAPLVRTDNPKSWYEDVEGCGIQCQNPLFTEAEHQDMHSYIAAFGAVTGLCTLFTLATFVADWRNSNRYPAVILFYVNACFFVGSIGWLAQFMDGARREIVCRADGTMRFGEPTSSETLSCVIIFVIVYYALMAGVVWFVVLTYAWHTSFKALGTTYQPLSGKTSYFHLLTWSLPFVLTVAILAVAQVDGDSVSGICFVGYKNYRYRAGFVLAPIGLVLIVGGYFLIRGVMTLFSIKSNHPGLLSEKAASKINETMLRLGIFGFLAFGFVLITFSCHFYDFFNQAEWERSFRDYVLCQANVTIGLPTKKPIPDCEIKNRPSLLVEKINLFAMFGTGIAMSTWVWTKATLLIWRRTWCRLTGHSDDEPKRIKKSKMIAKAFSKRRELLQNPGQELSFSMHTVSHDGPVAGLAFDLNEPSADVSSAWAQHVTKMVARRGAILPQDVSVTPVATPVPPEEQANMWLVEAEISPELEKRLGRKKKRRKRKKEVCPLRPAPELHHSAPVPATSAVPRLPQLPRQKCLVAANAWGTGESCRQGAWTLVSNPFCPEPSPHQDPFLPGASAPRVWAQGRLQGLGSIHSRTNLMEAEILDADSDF
Chain of murine SMO^E522K (P56726 33-793 E522K): as the sequence (P56726 33-793) above, with E490K counted along it

With CCC(C)n1ncn(-c2ccc(N3CCN(c4ccc(OCC5COC(Cn6cncn6)(c6ccc(Cl)cc6Cl)O5)cc4)CC3)cc2)c1=O (stereo not drawn) [itraconazole] the “Inhibition of SMO^E522K activity” value [1] was “almost completely inhibited”, the IC50 [2] was ~0.1 µM and the “Tumor growth inhibition compared to vehicle-treated tumors” value [3] was 96%. For the same compound, the “Inhibition of tumor Gli1 mRNA expression compared to vehicle-treated tumors” value [4] was 55%, the “Inhibition of mutant activity” value [5] was ~ 60% and the IC50 [6] was ~0.6 µM. For the same compound, the “Inhibition of relative Hh pathway activity (8×-GLI-luciferase reporter)” value ([6]; SHHN stimulated Smo−/− MEFs expressing SMO^WT) was “full antagonist”, the IC50 [7] was 0.055 µM and the “Inhibition of PGP” value [8] was “potent inhibitor”.
